From BindingDB's records for patent US20240000767 (Bayer Aktiengesellschaft, 2024)

Target: T1, Alpha-2C adrenergic receptor (Homo sapiens, UniProt P18825)
T1 sequence (P18825 whole entry): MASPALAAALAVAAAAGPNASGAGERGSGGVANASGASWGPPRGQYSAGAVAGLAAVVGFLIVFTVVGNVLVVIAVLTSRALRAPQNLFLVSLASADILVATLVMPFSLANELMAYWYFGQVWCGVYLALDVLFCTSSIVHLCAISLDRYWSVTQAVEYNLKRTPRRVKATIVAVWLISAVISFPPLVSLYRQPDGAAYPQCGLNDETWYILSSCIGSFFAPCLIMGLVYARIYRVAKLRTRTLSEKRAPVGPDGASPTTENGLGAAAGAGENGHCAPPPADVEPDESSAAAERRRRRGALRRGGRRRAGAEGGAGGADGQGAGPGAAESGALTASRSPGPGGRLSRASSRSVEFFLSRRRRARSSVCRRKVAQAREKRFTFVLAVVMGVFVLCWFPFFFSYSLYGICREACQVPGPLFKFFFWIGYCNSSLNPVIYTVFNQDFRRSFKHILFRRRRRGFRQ
Experiment: In Vitro Radioligand Binding Assay
Experimental: In Vitro Radioligand Binding Studies for Determination of the Dissociation Constants K1 at the Human Adrenoreceptor ADRA2C (Eurofins Panlabs Discovery Services, Taiwan, Ltd)A competition assay based on [3H] rauwolscine as radioliganden was used to determine the binding affinity of the test substances at the human ADRA2C receptor.To configure the competition assay, the equilibrium dissociation constant Kd of the radioligand [3H] rauwolscine was determined in a saturation experiment. To this end, homogenates of CHO-K1 cells recombinantly expressing the human ADRA2C receptor were incubated with increasing concentrations of the radiotracers for 1 h at 4° C. in binding buffer (50 mM Tris-HCl, 1 mM EDTA, pH 7.4). Unspecific binding was determined by addition of an excess of the not radioactively labelled ligand prazosin (10 μM). The radioactivity was determined in a scintiation counter.The competition experiments were carried out in the presence of 0.5 nM [3H] rauwolscine and increasing concentrations of the test substances to be characterized under the conditions described above.

| IC50 [µM] | Structure (SMILES) |
| --- | --- |
| 6.8 | C[C@@H]1CCCN(C2CCN(c3ncc(C(=O)NCc4cc(C(F)(F)F)ccn4)s3)CC2)C1 [US20240000767, Example 18] |
| 0.03 | C[C@@H]1CCCN(C2CCN(c3nc(Br)c(C(=O)NCc4ncc(F)cc4F)s3)CC2)C1 [US20240000767, Example 119] |
